US11464754B2, “Betaine for the prevention of obesity” (HOSPITAL SANT JOAN DE DEU, priority 2017, dated 2022)

Columns and labels:
ICR-CD1 mice [1] = test: Maternal betaine supplementation during lactation, lean dams: offspring growth, adiposity and metabolism on chow diet; type: in vivo
Protocol: (§1) All animal protocols were approved by the Institutional Animal Care and Use Committee of the University of Barcelona (Spain). Mice were housed on a 12-hour light-dark cycle with free access to food and water. Male and female ICR-CD1 mice (Envigo) were mated to obtain progeny. To minimize growth variability, litters were adjusted to 8 pups per dam at birth removing heaviest and lightest mice. Glycine betaine (1% wt/vol), ampicilin (1 g/L), and neomycin (0.5 g/L) (Sigma-Aldrich) were administered in water during lactation. After weaning, mice were housed 4 per cage and fed the 2014 Teklad diet (Envigo). For diet-induced obesity, a high-fat diet (HFD, 45% kcal from fat) was provided (D12451, Research Diets). For maternal obesity studies, 6-week-old females were fed HFD for 8 weeks before mating; this same diet was maintained through pregnancy and lactation. To assess milk intake, pups were separated from dams for 2 hours and returned to their cages for 1 hour; difference in body weight before and after the feeding was expressed as grams per initial body weight per hour. For milk harvesting, samples were collected manually under anesthesia (pentobarbital, 40 mg/kg) at day 14 after birth; dams and pups were sacrificed after milk collection, and cecal content obtained for microbiome studies. Body composition was determined by using a 7.0T Bruker Biospect MRI system (Bruker Medical Gmbh, Germany). Indirect calorimetry was measured in metabolic cages (PhenoMaster/LabMaster, TSE Systems GmbH, Germany); O2, CO2, food intake, and locomotor activity were monitored for 48 hours, and data analyzed using 2-way ANOVA for repeated measures. Intraperitoneal glucose (1.5 g/kg) and insulin (0.6 U/kg) tolerance test were performed after a 16 or 4 hour fast, respectively. Mice were anesthetized (intraperitoneal pentobarbital, 50 mg/kg) and sacrificed between 9-11 am.
(§2) Mouse milk samples were diluted 1:3 before macronutrient analysis by mid-infrared spectroscopy in a Miris Analyzer (Miris AB). Relative betaine concentrations were determined by liquid chromatography (Acquity UPLC BEH HILIC column, Waters) coupled to mass spectrometry (QqQ/MS 6490, Agilent). Plasma insulin was determined by ELISA (Millipore). Plasma MCP-1, IL-6 and PAI-1 were measured using Milliplex Map (EMD Millipore, Merck). Hepatic and fecal triglycerides were quantified in chloroform-methanol extracts from liver or feces (50 mg) using Triglyceride Assay Kit (Sigma-Aldrich).
(§3) Tissues were fixed by immersion in formalin, paraffin-embedded, and sections stained with hematoxylin/eosin. For WAT, adipocyte area was measured in 30 random microscopic fields per animal (10-20 cells/field). For ileum, cross-sectional cuts were stained with Periodic acid-Schiff (PAS) method. Ten villi per mouse from 5-6 sections were analyzed. Goblet cell number per villus was determined and expressed as number of cells per 100 μm. Analyses were performed using ImageJ by a researcher blinded to sample ID.
To study whether milk betaine modulates growth and obesity risk, we performed maternal supplementation experiments in mice exclusively during lactation. Dams were randomly assigned to control (C) or treatment (B, 1% betaine in water) groups the first day after delivery. Milk samples were collected at day 14 after birth from a subset of dams to determine betaine levels.
(§4) It was also investigated whether the above changes during early life translated into long-term metabolic improvements. Offspring was maintained on a chow diet after weaning and monitored up to 24 weeks of age. […] Consistent with lower adiposity, adipocyte size and inflammatory markers were decreased in male offspring from betaine-treated dams. […] Furthermore, basal insulin levels decreased by 40% in treatment compared to control group (p<0.05, FIG. 5D).

ICR-CD1 mice [2] = test: Maternal betaine supplementation during lactation in mouse model of maternal obesity; type: in vivo
Protocol: as §1
To test whether betaine interacts with maternal obesity, betaine supplementation was performed during lactation in a mouse model of maternal obesity. Dams were fed a high-fat diet (HFD) for 8 weeks before mating, and randomly assigned to control (MO-C) or betaine treatment (MO-B) groups at delivery. Supplementation was performed as described above.
as §4

[3] = Betaine levels and composition of dam milk, and offspring plasma betaine, after maternal betaine supplementation during lactation; type: in vivo, mice
Protocol: All animal protocols were approved by the Institutional Animal Care and Use Committee of the University of Barcelona (Spain). Mice were housed on a 12-hour light-dark cycle with free access to food and water. Male and female ICR-CD1 mice (Envigo) were mated to obtain progeny. To minimize growth variability, litters were adjusted to 8 pups per dam at birth removing heaviest and lightest mice. Glycine betaine (1% wt/vol), ampicilin (1 g/L), and neomycin (0.5 g/L) (Sigma-Aldrich) were administered in water during lactation. After weaning, mice were housed 4 per cage and fed the 2014 Teklad diet (Envigo). […] To assess milk intake, pups were separated from dams for 2 hours and returned to their cages for 1 hour; difference in body weight before and after the feeding was expressed as grams per initial body weight per hour. […] Body composition was determined by using a 7.0T Bruker Biospect MRI system (Bruker Medical Gmbh, Germany). Indirect calorimetry was measured in metabolic cages (PhenoMaster/LabMaster, TSE Systems GmbH, Germany); O2, CO2, food intake, and locomotor activity were monitored for 48 hours, and data analyzed using 2-way ANOVA for repeated measures. […]
Mouse milk samples were diluted 1:3 before macronutrient analysis by mid-infrared spectroscopy in a Miris Analyzer (Miris AB). […] Plasma insulin was determined by ELISA (Millipore). […]

ICR-CD1 mice [4] = test: Intestinal epithelium and inflammatory markers in 6-week-old offspring of betaine-treated dams; type: in vivo
Protocol: as §1, §2
Total RNA from tissues was isolated with TRI Reagent (Sigma-Aldrich) and cDNA obtained with High-capacity cDNA kit (Applied Biosystems). qPCR was performed with SybrGreen (Takara Bio), using Hprt as housekeeping gene. Primer sequences are the following:
as §3
These changes were accompanied by decreased mRNA levels of inflammatory markers (Ccl2, TIr4, Cd11c) in epididymal white adipose tissue (eWAT, FIG. 4B).

ICR-CD1 mice [5] = test: Diet-induced obesity (HFD for 16 weeks) in offspring of betaine-treated dams; type: in vivo
Protocol: as §1, §2
It was then tested whether this early-life intervention protected against diet-induced obesity. To this end, 6-week-old offspring of lean control or betaine-treated dams were fed a HFD for 16 weeks (HF-C and HF-B groups, respectively). […] Supplementation ameliorated glucose tolerance (FIG. 6B), and decreased fasting glucose (Time 0, FIG. 6B) and insulin levels (FIG. 6C). Hepatic triglyceride accumulation was reduced by 30% in the HF-B group (p<0.05, FIG. 6D).

[6] = adult male offspring, chow diet

C[N+](C)(C)CC(=O)O [betaine, glycine betaine]
glucose tolerance (ICR-CD1 mice [1]; adult female offspring): no effect
adipocyte size and inflammatory markers (ICR-CD1 mice [1]; [6]): decreased
decrease of basal insulin levels (ICR-CD1 mice [1]; adult male offspring, treatment vs control group): 40%
glucose tolerance (ICR-CD1 mice [1]; adult male offspring, week 20): notable improvement
blood glucose at each time point in insulin tolerance testing (ICR-CD1 mice [1]; adult males): significantly lower
response to insulin administration (ICR-CD1 mice [1]; adult males, insulin tolerance testing): no difference
hepatic triglyceride accumulation (ICR-CD1 mice [1]; adult offspring, chow diet): no significant effect
body weight gain and eWAT weight (ICR-CD1 mice [1]; female offspring, chow diet): no effect
offspring growth patterns during lactation (ICR-CD1 mice [1]; lean dams, 1% betaine in water): did not modulate
milk intake (ICR-CD1 mice [1]; lean dams, pups at 1 week of age): did not modulate
fat mass (ICR-CD1 mice [1]; male offspring at 6 weeks of age, vs control): decreased
eWAT weight (ICR-CD1 mice [1]; male offspring, chow diet, 24 weeks): decreased
body weight gain throughout adulthood (ICR-CD1 mice [1]; male offspring, chow diet, up to 24 weeks of age): lower
glucose tolerance, food intake, energy expenditure, respiratory exchange ratio, activity levels (ICR-CD1 mice [1]; young mice): did not differ
fat mass (ICR-CD1 mice [2]; 6 weeks of age, MO-B vs MO-C): trend towards lower
milk intake (ICR-CD1 mice [2]; MO-B vs MO-C): no differences
offspring growth during lactation (ICR-CD1 mice [2]; MO-B vs MO-C, obese dams): moderated
basal insulin levels (ICR-CD1 mice [2]; adult male offspring): decreased
glucose tolerance (ICR-CD1 mice [2]; adult male offspring): improved
body weight and adiposity (ICR-CD1 mice [2]; [6]): lower
increase of milk betaine content ([3]; dam milk at day 14 after birth, 1% betaine in water during lactation, vs control): 5 fold
increase of offspring plasma betaine ([3]; fourteen-day-old offspring of betaine-treated dams): 1.8 fold
mRNA levels of inflammatory markers (Ccl2, Tlr4, Cd11c) in eWAT (ICR-CD1 mice [4]; six-week-old male offspring): decreased
circulating levels of IL-6 (ICR-CD1 mice [4]; six-week-old male offspring, p<0.05): decreased
circulating levels of MCP-1 (ICR-CD1 mice [4]; six-week-old male offspring, p=0.08): numerical decrease
circulating levels of PAI-1 (ICR-CD1 mice [4]; six-week-old male offspring, p=0.25): numerical decrease
expression of Ccl2 in brown adipose, liver, and skeletal muscle (ICR-CD1 mice [4]; six-week-old offspring): decreased
ileal Muc2 mRNA expression (ICR-CD1 mice [4]; six-week-old offspring): increased
ileal villi length (ICR-CD1 mice [4]; six-week-old offspring): no differences
increase of ileal goblet cell number (ICR-CD1 mice [4]; six-week-old offspring): 1.3 fold
reduction of hepatic triglyceride accumulation (ICR-CD1 mice [5]; HF-B group vs HF-C, male mice): 30%
fecal lipid content (ICR-CD1 mice [5]; HFD): no differences
cumulative food intake (ICR-CD1 mice [5]; HFD, did not reach statistical significance): modest numerical decrease
body weight gain (ICR-CD1 mice [5]; male and female offspring on HFD, HF-B vs HF-C): lower
insulin levels (ICR-CD1 mice [5]; male mice on HFD): decreased
glucose tolerance (ICR-CD1 mice [5]; male mice on HFD, 18 weeks of life): ameliorated
fasting glucose (ICR-CD1 mice [5]; male mice on HFD, Time 0): decreased
